Data on 25 compounds can be found in US20010039287A1, “AROMATIC SULFONE HYDROXAMIC ACID METALLOPROTEASE INHIBITOR” (priority 1997, published 2001).

Structures are written as SMILES. Structures can show the parent of a compound that is named as a salt.

What all share (experiment): biochemical
Experiment [1] addresses T1, recombinant human MMP-2 (Homo sapiens, UniProt P08253).
T1 sequence (P08253 110-660): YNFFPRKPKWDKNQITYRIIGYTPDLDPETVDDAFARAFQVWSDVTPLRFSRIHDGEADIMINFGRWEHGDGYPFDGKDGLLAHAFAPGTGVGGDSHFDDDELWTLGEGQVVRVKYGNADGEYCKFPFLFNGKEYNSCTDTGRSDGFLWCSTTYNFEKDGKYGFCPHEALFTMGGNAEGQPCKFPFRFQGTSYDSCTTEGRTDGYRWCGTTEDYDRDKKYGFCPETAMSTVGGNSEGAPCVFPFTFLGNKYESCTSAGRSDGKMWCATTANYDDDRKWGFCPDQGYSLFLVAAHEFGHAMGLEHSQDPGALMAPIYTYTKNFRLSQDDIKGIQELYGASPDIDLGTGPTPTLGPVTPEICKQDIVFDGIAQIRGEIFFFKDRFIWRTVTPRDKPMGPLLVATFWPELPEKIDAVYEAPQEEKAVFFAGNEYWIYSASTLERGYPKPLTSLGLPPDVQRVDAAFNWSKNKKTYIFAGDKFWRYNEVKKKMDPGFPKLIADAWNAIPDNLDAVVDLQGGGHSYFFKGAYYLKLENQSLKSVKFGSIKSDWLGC
To be noted: Inhibition Table B; read-out: MMP-2 IC50.

For experiment [2], the target named is T2, recombinant human MMP-1 (Homo sapiens, UniProt P03956).
T2 construct: made in house; host or cells: transfected HT-1080 cells (provided by Dr. Harold Welgus, Washington University)
T2 sequence (P03956 100-469): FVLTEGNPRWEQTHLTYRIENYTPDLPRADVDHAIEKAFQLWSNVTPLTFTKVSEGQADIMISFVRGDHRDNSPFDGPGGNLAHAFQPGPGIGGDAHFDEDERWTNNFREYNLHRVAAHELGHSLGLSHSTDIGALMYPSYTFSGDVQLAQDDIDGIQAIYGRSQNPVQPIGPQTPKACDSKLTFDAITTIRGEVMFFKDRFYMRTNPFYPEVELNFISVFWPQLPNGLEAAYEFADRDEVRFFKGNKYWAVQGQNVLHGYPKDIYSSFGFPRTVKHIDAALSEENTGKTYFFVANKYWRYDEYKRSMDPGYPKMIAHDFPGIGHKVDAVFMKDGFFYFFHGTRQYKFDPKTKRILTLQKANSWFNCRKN
To be noted: Inhibition Table B; read-out: MMP-1 IC50.

The target in experiment [3] is recombinant human MMP-13 (Homo sapiens, UniProt P45452). To be noted: Inhibition Table B; read-out: MMP-13 IC50.

In the case of `NCCc1ccc(Oc2ccc(S(=O)(=O)C3(C(=O)NO)CCS(=O)(=O)CC3)cc2)cc1` [Example 54, 4-[[4-[4-(2-aminoethyl))-phenoxy]phenyl]sulfonyl]tetrahydro-N-hydroxy-2H-thiopyran-4-carboxamide 1,1-dioxide Monohydrochloride], the IC50 is 0.06 µM in experiment [1], above 10 µM in experiment [2] and 0.12 µM in experiment [3].

Take `O=C(NOC1CCCCO1)C1(S(=O)(=O)c2ccc(F)cc2)CCOCC1` (stereo not drawn) [Example 55, 4-[(4-fluorophenyl)-sulfonyl]tetrahydro-N-[(tetrahydro-2H-pyran-2-yl)oxy]-2H-pyran-4-carboxamide]: the IC50 in experiment [1] turned out to be 0.0001 µM; in experiment [2] it was 1.2 µM; in experiment [3], 0.0003 µM.

On to `O=C(NO)C1(S(=O)(=O)c2ccc(Oc3ccc(F)c(F)c3)cc2)CCOCC1` [Example 56, 4-[[4-(3,4-difluorophenoxy)-phenyl]sulfonyl]tetrahydro-N-hydroxy-2H-pyran-4-carboxamide], for which the IC50 in experiment [1] is below 0.0001 µM; in experiment [2], 1.5 µM; in experiment [3], 0.00015 µM.

As to `O=C(NO)C1(S(=O)(=O)c2ccc(Oc3ccc(I)cc3)cc2)CCOCC1` [Example 57, Tetrahydro-N-hydroxy-4-[[4-(4-iodophenoxy)phenyl]sulfonyl]-2H-pyran-4-carboxamide], the half-maximal inhibitory concentration (IC50) in experiment [1] is below 0.0001 µM; in experiment [2], 1.2 µM; in experiment [3] it was 0.0002 µM.

For `O=C(NO)C1(S(=O)(=O)c2ccc(Oc3cc(F)c(F)cc3F)cc2)CCOCC1` [Example 58, Tetrahydro-N-hydroxy-4-[[4-(2,4,5-trifluorophenoxy)phenyl]-sulfonyl]-2H-pyran-4-carboxamide], the figures for the IC50 in experiment [1], in experiment [2] and in experiment [3] were 0.083 µM, above 10 µM and 0.03 µM, respectively.

For `O=C(NO)C1(S(=O)(=O)c2ccc(Sc3ccc(Cl)c(Cl)c3)cc2)CCOCC1` [Example 60], the IC50 in experiment [1] is 0.064 µM; in experiment [2], above 10 µM; in experiment [3] it was 0.147 µM.

In the case of `Nc1cc(C(F)(F)F)ccc1Sc1ccc(S(=O)(=O)C2(C(=O)NO)CCOCC2)cc1` [Example 61, 4—[[4-[[2-amino-4-(trifluoromethyl)phenyl]thio]phenyl]-sulfonyl]-tetrahydro-N-hydroxy-2H-pyran-4-carboxamide, Monohydrochloride], the IC50 was 1.5 µM in experiment [1], above 10 µM in experiment [2] and 2 µM in experiment [3].

For the compound `COc1ccc(Oc2ccc(S(=O)(=O)C3(C(=O)NO)CCOCC3)cc2)cc1` [Example 64], the IC50 in experiment [1] is below 0.0001 µM; in experiment [2], 1.47 µM; in experiment [3] it was 0.00015 µM.

For `O=C(NO)C1(S(=O)(=O)c2ccc(F)cc2)CCOCC1` [Example 66, 4-[(4-fluorophenyl)-sulfonyl]tetrahydro-N-hydroxy-2H-pyran-4-carboxamide], the IC50 is 4.59 µM in experiment [1], above 10 µM in experiment [2] and 36 µM in experiment [3].

For `O=C(NO)C1(S(=O)(=O)c2ccc(OC3CCNCC3)cc2)CCOCC1` [Example 67, tetrahydro-N-hydroxy-4-[[4-(4-piperidinyloxy)phenyllsulfonyl]-2H-pyran-4-carboxamide, Monohydrochloride], the IC50 in experiment [1] is 0.239 µM; in experiment [2], 1.6 µM; in experiment [3], 0.268 µM.

On to `O=C(NO)C1(S(=O)(=O)c2ccc(Oc3ccc(OCc4ccccc4)cc3)cc2)CCOCC1` [Example 72, tetrahydro-N-hydroxy-4-[[4-[4-[(phenylmethyl)oxy]phenoxy]-phenyl]-sulfonyl]-2H-pyran-4-carboxamide], for which the IC50 was below 0.0001 µM in experiment [1], 2.1 µM in experiment [2] and 0.0003 µM in experiment [3].

With `O=C(CS(=O)(=O)c1ccc(NC(=O)OCc2ccccc2)cc1)NO` [Example 74, phenylmethyl-[4-[[2-(hydroxyamino)-2-oxoethyl]-sulfonyl]-phenyl]carbamate], the IC50 in experiment [1] is 0.13 µM; in experiment [2] it was above 10 µM; in experiment [3], 0.48 µM.

With `O=C(CS(=O)(=O)c1ccc(NC(=O)Nc2ccccc2)cc1)NO` [Example 75, N—hydroxy-2-[[4-[[(phenylamino)carbonyl]amino]-phenyl]sulfonyl]acetamide], the IC50 is 0.06 µM in experiment [1], above 10 µM in experiment [2] and 0.9 µM in experiment [3].

As for `C=CCN1CCC(C(=O)NO)(S(=O)(=O)c2ccc(Oc3ccc(Cl)c(C)c3)cc2)CC1` [Example 82, 4-[[4-(4-chloro-3-methylphenoxy)phenyljsulfonyl]-N-hydroxy-1-(2-propenyl)-4-piperidinecarboxamide, Monohydrochloride], the IC50 in experiment [1] was found to be 0.0001 µM; in experiment [2], 4 µM; in experiment [3] it was 0.0003 µM.

With `O=C(NO)C1(S(=O)(=O)c2ccc(Oc3ccc(F)c(Cl)c3)cc2)CCNCC1` [Example 84, 4-[[4-(3-chloro-4-fluorophenoxy)phenyl]sulfonyl]-N-hydroxy-4-piperidine Carboxamide, Monohydrochloride], the IC50 in experiment [1] worked out at 0.0018 µM; in experiment [2], 8 µM; in experiment [3], 0.0025 µM.

With `O=C(NO)C1(S(=O)(=O)c2ccc(Sc3ccccc3)cc2)CCNCC1` [Example 86, 4-[[4-(phenylthio)-phenyl]-sulfonyl]-N-hydroxy-4-piperidine-carboxamide, Monohydrochloride], the figures for the IC50 in experiment [1], in experiment [2] and in experiment [3] were 0.0025 µM, above 10 µM and 0.0035 µM, respectively.

For `CC(C)NC(=O)N1CCC(C(=O)NO)(S(=O)(=O)c2ccc(Oc3ccc(Cl)cc3)cc2)CC1` [Example 90, 4-[[4-(4-chlorophenoxy)-phenyl]sulfonyl]-N^4-hydroxy-N^1-(1-methylethyl)-1,4-piperidine Dicarboxamide], the IC50 was found to be 0.0001 µM in experiment [1], 1.2 µM in experiment [2] and 0.0001 µM in experiment [3].

Consider `CN(c1ccccc1)c1ccc(S(=O)(=O)C2(C(=O)NO)CCNCC2)cc1` [Example 92, N-hydroxy-4-[[4-(methylphenylamino)phenyl]sulfonyl]-4-piperidinecarboxamide, Monohydrochloride], for which the IC50 in experiment [1] is 1.8 µM; in experiment [2], above 10 µM; in experiment [3], 2.43 µM.

For the compound `Cc1ccc(Oc2ccc(S(=O)(=O)C3(C(=O)NO)CCOCC3)cc2)cn1` [Example 97, Tetrahydro-N-hydroxy-4-[[4-[(6-methyl-3-pyridinyl)oxy]phenyl]-sulfonyl]-2H-pyran-4-carboxamide, Monohydrochloride], the IC50 in experiment [1] was found to be 0.0082 µM; in experiment [2], 4 µM; in experiment [3], 0.0167 µM.

On to `Cc1cccc(Oc2ccc(S(=O)(=O)C3(C(=O)NO)CCOCC3)cc2)n1` [Example 98, Tetrahydro-N-hydroxy-4-[[4-[(6-methyl-2—pyridinyl)oxy]phenyl]-sulfonyl]-2H-pyran-4-carboxamide], for which the IC50 in experiment [1] was 0.037 µM; in experiment [2] it was above 10 µM; in experiment [3], 0.0234 µM.

On to `COC(=O)CCc1ccc(Oc2ccc(S(=O)(=O)C3(C(=O)NO)CCOCC3)cc2)cc1` [Example 102, methyl 4-[4-[(tetrahydro-4-[(hydroxyamino)carbonyl]-2H-pyran-4-yl]sulfonyl]-phenoxy]benzenepropanoate], for which the IC50 in experiment [1] is below 0.0001 µM; in experiment [2], 2 µM; in experiment [3], 0.0002 µM.

Regarding `C#CCN1CCC(Oc2ccc(S(=O)(=O)C3(C(=O)NO)CCOCC3)cc2)CC1` [Example 106, Tetrahydro-N-hydroxy-4-[[4-[[1-(2-propynyl)-4-piperidinyl]-oxy]phenyl]sulfonyl]-2H-pyran-4-carboxamide, Monohydrochloride], the IC50 was 0.0271 µM in experiment [1], above 10 µM in experiment [2] and 0.0121 µM in experiment [3].

For the compound `CC(=O)N1CCC(Oc2ccc(S(=O)(=O)C3(C(=O)NO)CCOCC3)cc2)CC1` [Example 107, 4-[[4-[(1-acetyl-4-piperidinyl)oxy]phenyl]-sulfonyl]tetrahydro-N-hydroxy-2H-pyran-4-carboxamide], the IC50 in experiment [1] is 0.0121 µM; in experiment [2] it was above 10 µM; in experiment [3] it was 0.006 µM.

With `O=C(NO)C1(S(=O)(=O)c2ccc(Oc3ccc(F)c(Cl)c3)cc2)CCOCC1` [Example 108, 4-[[4-(3-chloro-4-fluorophenoxy)phenyl]sulfonyl]-tetrahydro-N-hydroxy-2H-pyran-4-carboxamide], the IC50 in experiment [1] was determined as 0.0004 µM; in experiment [2] it was 2 µM; in experiment [3], 0.0004 µM.

With `CC(=O)N1CCN(c2ccc(Oc3ccc(S(=O)(=O)C4(C(=O)NO)CCSCC4)cc3)cc2)CC1` [Example 112], the IC50 in experiment [1] worked out at 0.007 µM; in experiment [2] it was 1 µM; in experiment [3] it was 0.0032 µM.

As a reminder, the IC50 is the midpoint of a concentration-inhibition curve.
